As a reminder, the pIC50 is the IC50 on a negative log10 scale, so that one unit is a factor of ten.

The values that follow come from patent publication US10745382B2 (BRISTOL-MYERS SQUIBB COMPANY, priority 2015, dated 2020).

Structures are written as SMILES. pIC50: −log10 of the molar value.

T1 sequence (Q9NZQ7 with tags, fused parts or gaps): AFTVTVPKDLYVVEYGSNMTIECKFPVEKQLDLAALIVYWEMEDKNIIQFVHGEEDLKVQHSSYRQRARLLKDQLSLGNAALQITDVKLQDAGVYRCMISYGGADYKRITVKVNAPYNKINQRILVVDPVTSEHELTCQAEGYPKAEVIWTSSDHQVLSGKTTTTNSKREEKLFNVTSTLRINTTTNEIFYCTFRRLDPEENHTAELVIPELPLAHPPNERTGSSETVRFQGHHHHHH

One assay addresses T1, PD-1/PD-L1 (Homo sapiens, UniProt Q9NZQ7).
T1 construct: made in house; host or cells: HEK293T
Nature of the assay: PD-1/PD-L1 Homogenous Time-Resolved Fluorescence (HTRF) binding assay. Conditions: PD-L1-His 10 nM, PD-1-Ig 20 nM; numeric IC50; read-out: Range or IC50. The gist of the method:
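dPBS + 0.1% BSA + 0.05% Tween-20 buffer; Eu-cryptate anti-Ig 1 nM final, APC anti-His 20 nM final; HTRF read. Counter-assays: PD-1-Ig/PD-L2-His 20 & 5 nM, CD80-His/PD-L1-Ig 100 & 10 nM.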
As to `Cc1c(COc2cc(OCc3cncc(C#N)c3)c(CN3CCCC[C@H]3C(=O)O)cc2Cl)cccc1-c1cccc(OCCCNC[C@H](O)CO)c1C` [Example 2333, (S)-1-(5-chloro-2-((5-cyanopyridin-3-yl)methoxy)-4-((3′-(3-(((S)-2,3-dihydroxypropyl)amino)propoxy)-2,2′-dimethyl-[1,1′-biphenyl]-3-yl)methoxy)benzyl)piperidine-2-carboxylic Acid], the pIC50 is 9.05.

The same assay, now with this note: PD-L1-His 10 nM, PD-1-Ig 20 nM; value given as range class; read-out: Range or IC50.
Consider `Cc1c(OCCCN2CC[C@@H](O)C2)cccc1-c1cccc(COc2cc(OCC(N)=O)c(CNC(CO)CO)cc2Cl)c1Cl` [Example 2316, (R)-2-(4-chloro-5-((2-chloro-3′-(3-(3-hydroxypyrrolidin-1-yl)propoxy)-2′-methyl-[1,1′-biphenyl]-3-yl)methoxy)-2-(((1,3-dihydroxypropan-2-yl)amino)methyl)phenoxy)acetamide], for which the pIC50 is 8.00 to 9.68.

For `Cc1c(OCCCN2CC[C@@H](O)C2)cccc1-c1cccc(COc2cc(OCC(=O)N(C)C)c(CNC(CO)CO)cc2Cl)c1Cl` [Example 2317, (R)-2-(4-chloro-5-((2-chloro-3′-(3-(3-hydroxypyrrolidin-1-yl)propoxy)-2′-methyl-[1,1′-biphenyl]-3-yl)methoxy)-2-(((1,3-dihydroxypropan-2-yl)amino)methyl)phenoxy)-N,N-dimethylacetamide], the pIC50 is 8.00 to 9.68.

As for `Cc1c(OCCCN2CC[C@@H](O)C2)cccc1-c1cccc(COc2cc(OCC(F)F)c(CNC(CO)CO)cc2Cl)c1Cl` [Example 2318, (R)-2-((5-chloro-4-((2-chloro-3′-(3-(3-hydroxypyrrolidin-1-yl)propoxy)-2′-methyl-[1,1′-biphenyl]-3-yl)methoxy)-2-(2,2-difluoroethoxy)benzyl)amino)propane-1,3-diol], the pIC50 is 8.00 to 9.68.

As to `Cc1c(OCCCN2CC[C@@H](O)C2)cccc1-c1cccc(COc2cc(OCC3CC3)c(CNC(CO)CO)cc2Cl)c1Cl` [Example 2319, (R)-2-((5-chloro-4-((2-chloro-3′-(3-(3-hydroxypyrrolidin-1-yl)propoxy)-2′-methyl-[1,1′-biphenyl]-3-yl)methoxy)-2-(cyclopropylmethoxy)benzyl)amino)propane-1,3-diol], the pIC50 is 8.00 to 9.68.

Take `Cc1c(OCCCN2CC[C@@H](O)C2)cccc1-c1cccc(COc2cc(OCC3CC3(F)F)c(CNC(CO)CO)cc2Cl)c1Cl` (stereo partly drawn) [Example 2320, 2-((5-chloro-4-((2-chloro-3′-(3-((R)-3-hydroxypyrrolidin-1-yl)propoxy)-2′-methyl-[1,1′-biphenyl]-3-yl)methoxy)-2-((2,2-difluorocyclopropyl)methoxy)benzyl)amino)propane-1,3-diol]: the pIC50 is 8.00 to 9.68.

In the case of `CC(C)=CCOc1cc(OCc2cccc(-c3cccc(OCCCN4CC[C@@H](O)C4)c3C)c2Cl)c(Cl)cc1CNC(CO)CO` [Example 2321, (R)-2-((5-chloro-4-((2-chloro-3′-(3-(3-hydroxypyrrolidin-1-yl)propoxy)-2′-methyl-[1,1′-biphenyl]-3-yl)methoxy)-2-((3-methylbut-2-en-1-yl)oxy)benzyl)amino)propane-1,3-diol], the pIC50 was 8.00 to 9.68.

In the case of `Cc1c(COc2cc(OCc3cncc(C#N)c3)c(CNC(CO)CO)cc2Cl)cccc1-c1cccc(OC[C@H]2CCNC2)c1C` [Example 2323, (S)-5-((4-chloro-2-(((1,3-dihydroxypropan-2-yl)amino)methyl)-5-((2,2′-dimethyl-3′-(pyrrolidin-3-ylmethoxy)-[1,1′-biphenyl]-3-yl)methoxy)phenoxy)methyl)nicotinonitrile], the pIC50 is 8.00 to 9.68.

In the case of `Cc1c(COc2cc(OCc3cncc(C#N)c3)c(CNC(C)(CO)CO)cc2Cl)cccc1-c1cccc(OCCCN2CC[C@@H](O)C2)c1C` [Example 2324, (R)-5-((4-chloro-2-(((1,3-dihydroxy-2-methylpropan-2-yl)amino)methyl)-5-((3′-(3-(3-hydroxypyrrolidin-1-yl)propoxy)-2,2′-dimethyl-[1,1′-biphenyl]-3-yl)methoxy)phenoxy)methyl)nicotinonitrile], the pIC50 is 8.00 to 9.68.

As to `Cc1c(COc2cc(OCc3cncc(C#N)c3)c(CN(C)C(CO)CO)cc2Cl)cccc1-c1cccc(OCCCN2CC[C@@H](O)C2)c1C` [Example 2325, (R)-5-((4-chloro-2-(((1,3-dihydroxypropan-2-yl)(methyl)amino)methyl)-5-((3′-(3-(3-hydroxypyrrolidin-1-yl)propoxy)-2,2′-dimethyl-[1,1′-biphenyl]-3-yl)methoxy)phenoxy)methyl)nicotinonitrile], the pIC50 is 8.00 to 9.68.

Regarding `Cc1c(COc2cc(OCc3cncc(C#N)c3)c(CNC(C)(C)C)cc2Cl)cccc1-c1cccc(OCCCN2CC[C@@H](O)C2)c1C` [Example 2326, (R)-5-((2-((tert-butylamino)methyl)-4-chloro-5-((3′-(3-(3-hydroxypyrrolidin-1-yl)propoxy)-2,2′-dimethyl-[1,1′-biphenyl]-3-yl)methoxy)phenoxy)methyl)nicotinonitrile], the pIC50 is 8.00 to 9.68.

In the case of `Cc1c(COc2cc(OCc3cncc(C#N)c3)c(CN[C@@](C)(CO)C(=O)O)cc2Cl)cccc1-c1cccc(OCCCN2CC(=O)NC(=O)C2)c1C` [Example 2327, (S)-2-((5-chloro-2-((5-cyanopyridin-3-yl)methoxy)-4-((3′-(3-(3,5-dioxopiperazin-1-yl)propoxy)-2,2′-dimethyl-[1,1′-biphenyl]-3-yl)methoxy)benzyl)amino)-3-hydroxy-2-methylpropanoic Acid], the pIC50 was 8.00 to 9.68.

Take `Cc1c(COc2cc(OCc3cncc(C#N)c3)c(CN[C@@](C)(CO)C(=O)O)cc2Cl)cccc1-c1cccc(OCCCN2CCN(C)C(=O)C2)c1C` [Example 2328, (S)-2-((5-chloro-2-((5-cyanopyridin-3-yl)methoxy)-4-((2,2′-dimethyl-3′-(3-(4-methyl-3-oxopiperazin-1-yl)propoxy)-[1,1′-biphenyl]-3-yl)methoxy)benzyl)amino)-3-hydroxy-2-methylpropanoic Acid]: the pIC50 was 8.00 to 9.68.

Consider `Cc1c(COc2cc(OCc3cncc(C#N)c3)c(CN3CC(=O)NC(=O)C3)cc2Cl)cccc1-c1cccc(OCCCN2CC[C@@H](O)C2)c1C` [Example 2329, (R)-5-((4-chloro-2-((3,5-dioxopiperazin-1-yl)methyl)-5-((3′-(3-(3-hydroxypyrrolidin-1-yl)propoxy)-2,2′-dimethyl-[1,1′-biphenyl]-3-yl)methoxy)phenoxy)methyl)nicotinonitrile], for which the pIC50 was 8.00 to 9.68.

Turning to `Cc1c(COc2cc(OCc3cncc(C#N)c3)c(CN3CCN(C)C(=O)C3)cc2Cl)cccc1-c1cccc(OCCCN2CC[C@@H](O)C2)c1C` [Example 2330, (R)-5-((4-chloro-5-((3′-(3-(3-hydroxypyrrolidin-1-yl)propoxy)-2,2′-dimethyl-[1,1′-biphenyl]-3-yl)methoxy)-2-((4-methyl-3-oxopiperazin-1-yl)methyl)phenoxy)methyl)nicotinonitrile], the pIC50 was 8.00 to 9.68.

With `Cc1c(COc2cc(OCc3cncc(C#N)c3)c(CN3CCNC(=O)C3)cc2Cl)cccc1-c1cccc(OCCCN2CC[C@@H](O)C2)c1C` [Example 2331, (R)-5-((4-chloro-5-((3′-(3-(3-hydroxypyrrolidin-1-yl)propoxy)-2,2′-dimethyl-[1,1′-biphenyl]-3-yl)methoxy)-2-((3-oxopiperazin-1-yl)methyl)phenoxy)methyl)nicotinonitrile], the negative logarithm of the IC50 (pIC50) is 8.00 to 9.68.

For `Cc1c(COc2cc(OCc3cncc(C#N)c3)c(CN3CCCC[C@H]3C(=O)O)cc2Cl)cccc1-c1cccc(OCCCN(C)C[C@H](O)CO)c1C` [Example 2332, (S)-1-(5-chloro-2-((5-cyanopyridin-3-yl)methoxy)-4-((3′-(3-(((S)-2,3-dihydroxypropyl)(methyl)amino)propoxy)-2,2′-dimethyl-[1,1′-biphenyl]-3-yl)methoxy)benzyl)piperidine-2-carboxylic Acid], the pIC50 is 8.00 to 9.68.

For the molecule `Cc1c(COc2cc(OCc3cncc(C#N)c3)c(CN3CCCCC3CO)cc2Cl)cccc1-c1cccc(OCCCN2CC[C@@H](O)C2)c1C` (stereo partly drawn) [Example 2334, 5-((4-chloro-2-((2-(hydroxymethyl)piperidin-1-yl)methyl)-5-((3′-(3-((R)-3-hydroxypyrrolidin-1-yl)propoxy)-2,2′-dimethyl-[1,1′-biphenyl]-3-yl)methoxy)phenoxy)methyl)nicotinonitrile], the pIC50 is 8.00 to 9.68.

On to `Cc1c(COc2cc(OCc3cncc(C#N)c3)c(CNC(CO)CO)cc2Cl)cccc1-c1cccc(NC(=O)c2ncccc2CO)c1C` [Example 2340, N-(3′-((2-chloro-5-((5-cyanopyridin-3-yl)methoxy)-4-(((1,3-dihydroxypropan-2-yl)amino)methyl)phenoxy)methyl)-2,2′-dimethyl-[1,1′-biphenyl]-3-yl)-3-(hydroxymethyl)picolinamide], for which the pIC50 was 7.00 to 8.00.

Turning to `Cc1c(COc2cc(OCc3cncc(C#N)c3)c(CN[C@](C)(CO)C(=O)O)cc2Cl)cccc1-c1cccc(OCC2(CN3CC[C@@H](O)C3)CC2)c1C` [Example 2341, (R)-2-((5-chloro-2-((5-cyanopyridin-3-yl)methoxy)-4-((3′-((1-(((R)-3-hydroxypyrrolidin-1-yl)methyl)cyclopropyl)methoxy)-2,2′-dimethyl-[1,1′-biphenyl]-3-yl)methoxy)benzyl)amino)-3-hydroxy-2-methylpropanoic Acid], the pIC50 is 8.00 to 9.68.

With `Cc1c(COc2cc(OCc3cncc(C#N)c3)c(CNC(CO)CO)cc2Cl)cccc1-c1cccc(OCC2(CN3CC[C@@H](O)C3)CC2)c1C` [Example 2342, (R)-5-((4-chloro-2-(((1,3-dihydroxypropan-2-yl)amino)methyl)-5-((3′-((1-((3-hydroxypyrrolidin-1-yl)methyl)cyclopropyl)methoxy)-2,2′-dimethyl-[1,1′-biphenyl]-3-yl)methoxy)phenoxy)methyl)nicotinonitrile], the pIC50 was 8.00 to 9.68.
